According to patent US20090012049A1, “Use of an Unsaponifiable Extract of Plant Pulp in the Treatment of Skin Ageing” (priority 2006, published 2009):
Where “and” joins values, the source holds several entries; their conditions need not be identical. Equal values may be shown once.

How the values were obtained:
[1] = compared to the triterpene fraction; cited from earlier work
[2] = test system: murine fibroblast line L929; assay: TBARS test: lipid peroxidation after H2O2-Fe2+/Fe3+ stress; type: cell-based; conditions: L929 pre-treated 16 hours, H2O2-Fe2+/Fe3+ 1 hour
Protocol: In order to assess membrane degradation, the authors of the invention have measured lipid peroxidation by means of an in vitro assay of complexes formed between the products of lipid oxidation and thiobarbituric acid. These complexes are called TBARS (standing for “Thiobarbituric Acid Reactive Substances”) and give their name to the test: the TBARS Test.
In order to mimic chemical oxidative stress, the fibroblast line L929 was treated with a complex composed of hydrogen peroxide (H2O2) and iron (Fe^2+/Fe^3+), accordingly reproducing Fenton's reaction, a source of OFRs and, more particularly, the free hydroxyl radical (OH^∘) (Vessey D. A. et al J. Invest Dermatol. 1992; 99: 859-63): H2O2+Fe^2+→OH^∘+OH^−+Fe^3+.
The products were assessed using the murine fibroblast line L929. The cells are pre-treated with the various concentrations of products (Table I) for 16 hours and then stimulated with the H2O2—Fe^2+/Fe^3+ complex for 1 hour. The LK0304 batch of unsaponifiable extract of pulp of fruit of the argan tree was prepared in accordance with Example 2.
The peroxidation of membrane lipids is analyzed by TBARS measurement (according to Morliére P. et al Biochim. Biophys. Acta. 1991; 1084: 261-268).
In an acid medium, at 95° C., complexes referred to as TBARS (standing for “ThioBarbituric Acid Reactive Substances”) are formed between the lipid oxidation products (malondialdehyde or MDA) and thiobarbituric acid (TBA), which can be fluorescence-assayed relative to a MDA standard series. The TBARS assay value is then expressed in pmol/μg of proteins. The proteins and TBARS are assayed in the intracellular medium.
Starting from the calculation of the TBARS in pmol/μg of proteins, the protective efficacy of the various products against oxidation of the lipid membranes was calculated as follows.

[3] = at a dose lower than the triterpene fraction A devoid of erythrodiol; cited from earlier work
[4] = test system: murine fibroblast line L929; assay: 3D (DNA Damage Detection) test after H2O2 stress; type: cell-based; conditions: 3 μg/ml, L929 pre-treated 16 hours, H2O2 100 μM 30 minutes; for % DNA protection: basal control 100%, H2O2 stressed 0%
Source text: They decided to generate the lesions to DNA by means of H2O2 stress and to analyze indirectly the damage thereby caused, by analyzing the repair reaction. For that purpose, a kit referred to as the 3D (standing for “DNA Damage Detection”) test was used. This biochemical test mimics, in vitro, the repair reaction by means of excision (Salles B. et al Anal. Biochem. 1995; 232: 37-42 and Salles B. et al Biochimie 1999; 81: 53-58). The 3D test is based on the repairing of DNA lesions using purified human cell extracts.
The products were assessed using the murine fibroblast line L929. The cells are pre-treated with the products (Table III) for 16 hours and are then stimulated with H2O2 (Hydrogen Peroxide 3%—Ref. GIFRER—Laboratoire Gifrer Barbezat) at 100 μM for 30 minutes.
The principle is as follows: After damaging the genomic DNA (oxidative treatment), the cells are lysed. The lysate is deposited on a microplate coated with polylysine: • 1—Adsorption of the DNA • 2—Incubation of the DNA with a protein extract (enriched with repair enzymes) and a pool of nucleotides wherein one nucleotide is labeled with biotin (dUTP-Biotin)—Repair of the lesions and incorporation of the “dUTP-Biotin” labeled nucleotides in the DNA. • 3—Incubation with an “Avidin-Peroxidase” enzyme complex—Recognition by the avidin of the incorporated dUTP-Biotin. • 4—Addition of a luminescent peroxidase substrate and quantification of the emitted signal, which is proportional to the number of repaired lesions.
The test performance protocol is followed in accordance with the instructions of the kit supplier (Solyscel 3D Test—Ref: SFRIDN013— AES Laboratoire). At the end of the reaction, the plate is read in a luminometer (MITHRAS LB940-BERTHOLD).
The ratio below allows the percentage protection against the causation of lesions to DNA by oxidative stress to be calculated for each concentration of product tested (the Intensity of Luminescence—or IL—is an expression of the quantity of DNA lesions).
The values indicated in this Table are percentages of inhibition (or % protection) of lesions to DNA following exogenous oxidative stress, compared to “basal control” cells (100%) and “H2O2 stressed” cells (0%).

Compound | Benefit with respect to UVA and UVB [1] | Protection of membrane lipids in % Mean ([2]; 0.3 μg/ml) | Protection of membrane lipids in % Mean ([2]; 1 μg/ml) [%] | Toxicity [3] | % lesions to DNA [4] [%] | Intensity of luminescence [4] | % DNA protection [4] [%] | % DNA protection ([4]; listed as erythrodiol) | Protection of membrane lipids in % Mean ([2]; 400 μg/ml-928.7 μM) [%] | Protection of membrane lipids in % Mean ([2]; 400 μg/ml-928.7 μM, listed as Vitamin E)
CC1(C)CC[C@]2(CO)CC[C@]3(C)C(=CC[C@@H]4[C@@]5(C)CC[C@H](O)C(C)(C)[C@@H]5CC[C@]43C)[C@@H]2C1 [Erythrodiol] | only mediocre benefit | 33% and 33.75% | 38.43 | toxic | 1 | 5520 | 99 | the most active | – | –
C=C(C)[C@@H]1CC[C@]2(C)CC[C@]3(C)[C@H](CC[C@@H]4[C@@]5(C)CC[C@H](O)C(C)(C)[C@@H]5CC[C@]43C)[C@@H]12 [Lupeol] | – | – | – | – | 58.2 | 9020 | 41.8 | – | – | –
C[C@H]1[C@H](C)CC[C@]2(C)CC[C@]3(C)C(=CC[C@@H]4[C@@]5(C)CC[C@H](O)C(C)(C)[C@@H]5CC[C@]43C)[C@H]12 [α-Amyrine] | – | – | – | – | 52.4 | 8663.3 | 47.6 | – | – | –
CC1(C)CC[C@]2(C)CC[C@]3(C)C(=CC[C@@H]4[C@@]5(C)CC[C@H](O)C(C)(C)[C@@H]5CC[C@]43C)[C@@H]2C1 [β-Amyrine] | – | – | – | – | 125.4 | 13133.3 | −25.4 | – | – | –
Vitamin E [Vit E] | – | – | – | – | – | – | – | – | 56.62 | about 56%
